Test results reported in the NIST ThermoML archive (doi:10.1021/je800984q).
± gives the expanded uncertainty stated by the source.

Experiments:
[1] = Liquid; for viscosity / mass density: 298.15 K, 101 kPa; for viscosity: Capillary tube (Ostwald / Ubbelohde) method; for mass density: Vibrating tube method
[2] = xn = mol fraction of the nth substance listed; conditions: 298.15 K, 101 kPa, Liquid; for viscosity: Capillary tube (Ostwald / Ubbelohde) method; for mass density: Vibrating tube method

## CCOC(=O)OCC [diethyl carbonate]
[1]
  viscosity: 0.764 ± 0.008 mPa·s
  mass density: 969 ± 0.5 kg/m3
[1]; 343.77 K
  vapor or sublimation pressure: 13.8 ± 0.7 kPa
[1]; 351.67 K
  vapor or sublimation pressure: 19.3 ± 0.9 kPa
[1]; 355.63 K
  vapor or sublimation pressure: 22.7 ± 1 kPa
[1]; 358.29 K
  vapor or sublimation pressure: 26 ± 1.1 kPa
[1]; 363.84 K
  vapor or sublimation pressure: 31.3 ± 1.3 kPa
[1]; 366.98 K
  vapor or sublimation pressure: 35.2 ± 1.4 kPa
[1]; 369.75 K
  vapor or sublimation pressure: 39.1 ± 1.5 kPa
[1]; 372.28 K
  vapor or sublimation pressure: 42.8 ± 1.6 kPa
[1]; 374.61 K
  vapor or sublimation pressure: 46.5 ± 1.8 kPa
[1]; 377.05 K
  vapor or sublimation pressure: 50.5 ± 1.9 kPa
[1]; 379.59 K
  vapor or sublimation pressure: 55 ± 2 kPa
[1]; 381.49 K
  vapor or sublimation pressure: 58.8 ± 2.1 kPa
[1]; 383.37 K
  vapor or sublimation pressure: 63.1 ± 2.3 kPa
[1]; 383.57 K
  vapor or sublimation pressure: 63.5 ± 2.3 kPa
[1]; 386.18 K
  vapor or sublimation pressure: 68.5 ± 2.4 kPa
[1]; 387.61 K
  vapor or sublimation pressure: 72.8 ± 2.6 kPa
[1]; 390.35 K
  vapor or sublimation pressure: 78.5 ± 2.8 kPa
[1]; 392.39 K
  vapor or sublimation pressure: 84 ± 2.9 kPa
[1]; 393.93 K
  vapor or sublimation pressure: 88.2 ± 3.1 kPa
[1]; 395.72 K
  vapor or sublimation pressure: 93.4 ± 3.2 kPa
[1]; 398.28 K
  vapor or sublimation pressure: 101.5 ± 3.5 kPa

## CCOC(=O)OCC [diethyl carbonate] + C1CC2C3CCC(C3)C2C1
[2]; x1 = 1
  viscosity: 0.764 ± 0.008 mPa·s
  mass density: 969 ± 0.5 kg/m3

## C1CC2C3CCC(C3)C2C1 (stereo not given) [tricyclo[5.2.1.0(2,6)]decane]
[1]
  viscosity: 2.739 ± 0.07 mPa·s
  mass density: 931.4 ± 4.7 kg/m3
[1]; 393.98 K
  vapor or sublimation pressure: 15 ± 0.8 kPa
[1]; 396.02 K
  vapor or sublimation pressure: 16.6 ± 0.8 kPa
[1]; 401.42 K
  vapor or sublimation pressure: 20.6 ± 1 kPa
[1]; 413.88 K
  vapor or sublimation pressure: 30.3 ± 1.3 kPa
[1]; 418.34 K
  vapor or sublimation pressure: 34.8 ± 1.4 kPa
[1]; 426.86 K
  vapor or sublimation pressure: 44.9 ± 1.8 kPa
[1]; 431.22 K
  vapor or sublimation pressure: 50.7 ± 1.9 kPa
[1]; 434.56 K
  vapor or sublimation pressure: 55.8 ± 2.1 kPa
[1]; 436.68 K
  vapor or sublimation pressure: 59.2 ± 2.2 kPa
[1]; 439.31 K
  vapor or sublimation pressure: 63.2 ± 2.4 kPa
[1]; 441.13 K
  vapor or sublimation pressure: 66.6 ± 2.5 kPa
[1]; 442.7 K
  vapor or sublimation pressure: 69.5 ± 2.6 kPa
[1]; 442.81 K
  vapor or sublimation pressure: 69.8 ± 2.6 kPa
[1]; 444.37 K
  vapor or sublimation pressure: 72.9 ± 2.7 kPa
[1]; 445.73 K
  vapor or sublimation pressure: 75.1 ± 2.7 kPa
[1]; 446.13 K
  vapor or sublimation pressure: 75.9 ± 2.8 kPa
[1]; 450.08 K
  vapor or sublimation pressure: 83.9 ± 3 kPa
[1]; 457.66 K
  vapor or sublimation pressure: 101.1 ± 3.6 kPa

## C1CC2C3CCC(C3)C2C1 (stereo not given) [tricyclo[5.2.1.0(2,6)]decane] + CCOC(=O)OCC
[2]; x2 = 0
  viscosity: 2.739 ± 0.07 mPa·s
  mass density: 931.4 ± 4.7 kg/m3
[2]; x2 = 0.1141
  viscosity: 2.14 ± 0.051 mPa·s
  mass density: 933.1 ± 4 kg/m3
[2]; x2 = 0.2235
  viscosity: 1.757 ± 0.038 mPa·s
  mass density: 935.3 ± 3.3 kg/m3
[2]; x2 = 0.3303
  viscosity: 1.496 ± 0.03 mPa·s
  mass density: 938.1 ± 2.8 kg/m3
[2]; x2 = 0.4355
  viscosity: 1.292 ± 0.024 mPa·s
  mass density: 941.3 ± 2.3 kg/m3
[2]; x2 = 0.536
  viscosity: 1.149 ± 0.019 mPa·s
  mass density: 944.8 ± 1.9 kg/m3
[2]; x2 = 0.6336
  viscosity: 1.026 ± 0.016 mPa·s
  mass density: 948.8 ± 1.5 kg/m3
[2]; x2 = 0.7288
  viscosity: 0.938 ± 0.013 mPa·s
  mass density: 953.4 ± 1.2 kg/m3
[2]; x2 = 0.8207
  viscosity: 0.861 ± 0.011 mPa·s
  mass density: 958.2 ± 0.9 kg/m3
[2]; x2 = 0.9109
  viscosity: 0.814 ± 0.01 mPa·s
  mass density: 963.5 ± 0.7 kg/m3
